Results taken from PubChem BioAssay AID248 (DTP/NCI, 2004).
Several values for one entry are separate records, joined by “and”; a condition that tells them apart may be missing. Equal values may be shown once. Inconclusive results and toxic doses are left out. Rule as the data show it: active = T/C of 150% or more; inactive = T/C below 125%.

Test system: L1210 leukemia ip in BDF1 mice, survival T/C
Assay: NCI In Vivo Anticancer Drug Screen. Data for tumor model L1210 Leukemia (intraperitoneal) in B6D2F1 (BDF1) mice
Conditions: endpoint: mean survival time, higher = longer survival
Summary of the method: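 Each compound was tested against a transplantable tumor grown in mice. The endpoint was survival, with treated animals benchmarked against vehicle controls as a simple ratio.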

[1] = dose: 100.0 mg/kg/injection, schedule: Q01DX001 (ip), vehicle: saline
[2] = dose: 100.0 mg/kg/injection, schedule: Q01DX009 (ip), vehicle: saline with Tween-80
[3] = dose: 200.0 mg/kg/injection, schedule: Q01DX001 (ip), vehicle: saline
[4] = dose: 200.0 mg/kg/injection, schedule: Q01DX009 (ip), vehicle: saline with Tween-80
[5] = dose: 400.0 mg/kg/injection, schedule: Q01DX001 (ip), vehicle: saline
[6] = dose: 100.0 mg/kg/injection, schedule: Q01DX001 (ip), vehicle: Klucel (hydroxypropylcellulose) (HPC)
[7] = dose: 200.0 mg/kg/injection, schedule: Q01DX001 (ip), vehicle: Klucel (hydroxypropylcellulose) (HPC)
[8] = dose: 400.0 mg/kg/injection, schedule: Q01DX001 (ip), vehicle: Klucel (hydroxypropylcellulose) (HPC)
[9] = dose: 100.0 mg/kg/injection, schedule: Q04DX002 (ip), vehicle: saline
[10] = dose: 200.0 mg/kg/injection, schedule: Q04DX002 (ip), vehicle: saline
[11] = dose: 400.0 mg/kg/injection, schedule: Q04DX002 (ip), vehicle: saline
[12] = dose: 100.0 mg/kg/injection, schedule: Q01DX001 (ip), vehicle: carboxymethylcellulose (CMC)
[13] = dose: 200.0 mg/kg/injection, schedule: Q01DX001 (ip), vehicle: carboxymethylcellulose (CMC)
[14] = dose: 400.0 mg/kg/injection, schedule: Q01DX001 (ip), vehicle: carboxymethylcellulose (CMC)
[15] = dose: 100.0 mg/kg/injection, schedule: Q04DX003 (ip), vehicle: Klucel (hydroxypropylcellulose) (HPC)
[16] = dose: 200.0 mg/kg/injection, schedule: Q04DX003 (ip), vehicle: Klucel (hydroxypropylcellulose) (HPC)
[17] = dose: 400.0 mg/kg/injection, schedule: Q04DX003 (ip), vehicle: Klucel (hydroxypropylcellulose) (HPC)
[18] = dose: 100.0 mg/kg/injection, schedule: Q04DX002 (ip), vehicle: saline with Tween-80
[19] = dose: 200.0 mg/kg/injection, schedule: Q04DX002 (ip), vehicle: saline with Tween-80

Measured: T/C

O=C1NC(=O)C(c2ccc(O)cc2)N1 (centres undefined)
inactive: dose: 50.0 mg/kg/injection, schedule: Q01DX001 (ip), vehicle: saline 105 % of control | [1] 100 % of control | [2] 91 % of control | dose: 100.0 mg/kg/injection, schedule: Q04DX003 (ip), vehicle: saline with Tween-80 103 % of control | [3] 97 % of control | [4] 87 % of control | dose: 200.0 mg/kg/injection, schedule: Q04DX003 (ip), vehicle: saline with Tween-80 100 % of control | [5] 108 % of control | dose: 400.0 mg/kg/injection, schedule: Q04DX003 (ip), vehicle: saline with Tween-80 94 % of control

CC(=O)Nc1ccc(N=CN(C)C)cc1
inactive: [2] 94 % of control | [4] 101 % of control

CC1(CCI)NC(=O)NC1=O (centres undefined)
inactive: [6] 98 % of control | [7] 104 % of control | [8] 111 % of control

CC(=O)OCC/[N+]([O-])=C\c1ncc([N+](=O)[O-])n1C
inactive: [9] 100 % of control | [10] 114 % of control | [11] 100 % of control

CC1(C)SC(C(NC(=O)Cc2ccccc2)C(=O)O)NC1C(=O)O (centres undefined)
inactive: [2] 92 % of control | dose: 400.0 mg/kg/injection, schedule: Q01DX009 (ip), vehicle: saline with Tween-80 97 % of control

CC(=O)Nc1ccc(C=Nc2c(N)n(C)c(=O)n(C)c2=O)cc1
inactive: dose: 50.0 mg/kg/injection, schedule: Q01DX001 (ip), vehicle: carboxymethylcellulose (CMC) 94 % of control | [12] 96 % of control | [13] 94 % of control | [14] 90 % of control

CC1SCC(=O)CS1
inactive: [6] 93 % of control | [15] 91 % of control | [7] 96 % of control | [16] 94 % of control | [8] 96 % of control | [17] 97 % of control

CCn1cc([N+](=O)[O-])ccc1=O
inactive: dose: 100.0 mg/kg/injection, schedule: Q01DX009 (ip), vehicle: Klucel (hydroxypropylcellulose) (HPC) 104 % of control | [15] 98 % of control | dose: 200.0 mg/kg/injection, schedule: Q01DX009 (ip), vehicle: Klucel (hydroxypropylcellulose) (HPC) 101 % of control | [16] 96 % of control | dose: 400.0 mg/kg/injection, schedule: Q01DX009 (ip), vehicle: Klucel (hydroxypropylcellulose) (HPC) 98 % of control | [17] 107 % of control

COc1ccccc1-n1c(O)c(N=Nc2ccccc2C)c(=O)n(-c2ccc(I)cc2)c1=S
inactive: dose: 37.5 mg/kg/injection, schedule: Q01DX001 (ip), vehicle: Klucel (hydroxypropylcellulose) (HPC) 89 % of control | dose: 75.0 mg/kg/injection, schedule: Q01DX001 (ip), vehicle: Klucel (hydroxypropylcellulose) (HPC) 92 % of control | dose: 150.0 mg/kg/injection, schedule: Q01DX001 (ip), vehicle: Klucel (hydroxypropylcellulose) (HPC) 97 % of control

CSc1nc(N)c(N=Nc2ccc(S(=O)(=O)Nc3nnc(C)s3)cc2)c(=O)[nH]1
inactive: [12] 95 % of control | [13] 97 % of control | [14] 101 % of control

O=[N+]([O-])c1ccccc1CC1=NCCc2cc3c(cc21)OCO3
inactive: [1] 100 % of control | [3] 102 % of control | [5] 104 % of control

CCCCS(=O)(=O)N(CCC)CCC
inactive: [18] 93 % of control | [19] 93 % of control | dose: 400.0 mg/kg/injection, schedule: Q04DX002 (ip), vehicle: saline with Tween-80 97 % of control

Clc1ccccc1C=C1c2ccccc2-c2ccccc21
inactive: [15] 103 % of control | [16] 100 % of control | [17] 96 % of control

Cc1cccc(Cl)c1OCC(=O)Nc1ccccc1
inactive: [18] 101 % of control | [19] 104 % of control

O=[As](O)(O)Cc1ccc(F)cc1
inactive: dose: 6.25 mg/kg/injection, schedule: Q01DX009 (ip), vehicle: Klucel (hydroxypropylcellulose) (HPC) 96 % of control | dose: 12.5 mg/kg/injection, schedule: Q01DX009 (ip), vehicle: Klucel (hydroxypropylcellulose) (HPC) 105 % of control | dose: 25.0 mg/kg/injection, schedule: Q01DX009 (ip), vehicle: Klucel (hydroxypropylcellulose) (HPC) 108 % of control

O=C(COc1ccc(Cl)c(Cl)c1)NCc1ccc([N+](=O)[O-])cc1
inactive: [15] 90 % of control | [16] 92 % of control | [17] 88 % of control

CN(C)N=Nc1ccc(S(=O)(=O)N(CCCl)CCCl)cc1
inactive: dose: 12.5 mg/kg/injection, schedule: Q04DX002 (ip), vehicle: Klucel (hydroxypropylcellulose) (HPC) 100 % of control | dose: 25.0 mg/kg/injection, schedule: Q04DX002 (ip), vehicle: Klucel (hydroxypropylcellulose) (HPC) 96 % of control | dose: 50.0 mg/kg/injection, schedule: Q04DX002 (ip), vehicle: Klucel (hydroxypropylcellulose) (HPC) 103 % of control | dose: 100.0 mg/kg/injection, schedule: Q04DX002 (ip), vehicle: Klucel (hydroxypropylcellulose) (HPC) 120 % of control | dose: 200.0 mg/kg/injection, schedule: Q04DX002 (ip), vehicle: Klucel (hydroxypropylcellulose) (HPC) 103 % of control | dose: 400.0 mg/kg/injection, schedule: Q04DX002 (ip), vehicle: Klucel (hydroxypropylcellulose) (HPC) 95 % of control

CC(C)(C)OC(=O)c1c2ccccc2cc2ccccc12
inactive: dose: 100.0 mg/kg/injection, schedule: Q04DX002 (ip), vehicle: gum acacia 99 % of control | dose: 200.0 mg/kg/injection, schedule: Q04DX002 (ip), vehicle: gum acacia 101 % of control | dose: 400.0 mg/kg/injection, schedule: Q04DX002 (ip), vehicle: gum acacia 105 % of control

CC1(C2CCN(Cc3ccccc3)CC2)OCCO1
inactive: dose: 37.5 mg/kg/injection, schedule: Q04DX003 (ip), vehicle: saline 100 % of control | dose: 75.0 mg/kg/injection, schedule: Q04DX003 (ip), vehicle: saline 100 % of control | dose: 150.0 mg/kg/injection, schedule: Q04DX003 (ip), vehicle: saline 101 % of control

NCCCC(=S)S
inactive: [9] 95 % of control | [10] 96 % of control and 103 % of control | [11] 96 % of control and 116 % of control

CCN1CCCC(Nc2cc(C)nc(/N=C(\N)Nc3ccc(Cl)c(Cl)c3)n2)C1 (centres undefined)
inactive: dose: 75.0 mg/kg/injection, schedule: Q01DX001 (ip), vehicle: saline 92 % of control
